Molecular target: human full-length MKNK1 (Homo sapiens (Human), UniProt Q9BUB5, T344D)
Test: MKNK1 kinase high ATP assay (TR-FRET)
Type: biochemical
Conditions: high ATP (2 mM final), 15 min preincubation with enzyme
Procedure: MKNK1-inhibitory activity at high ATP of compounds of the present invention after their preincubation with MKNK1 was quantified employing the TR-FRET-based MKNK1 high ATP assay as described in the following paragraphs.
A recombinant fusion protein of Glutathione-S-Transferase (GST, N-terminally) and human full-length MKNK1 (amino acids 1-424 and T344D of accession number BAA 19885.1), expressed in insect cells using baculovirus expression system and purified via glutathione sepharose affinity chromatography, was purchased from Carna Biosciences (product no 02-145) and used as enzyme. As substrate for the kinase reaction the biotinylated peptide biotin-Ahx-IKKRKLTRRKSLKG (C-terminus in amide form) was used, which can be purchased e.g. from the company Biosyntan (Berlin-Buch, Germany).
For the assay 50 nL of a 100 fold concentrated solution of the test compound in DMSO was pipetted into a black low volume 384 well microtiter plate (Greiner Bio-One, Frickenhausen, Germany), 2 μL of a solution of MKNK1 in aqueous assay buffer [50 mM HEPES pH 7.5, 5 mM MgCl2, 1.0 mM dithiothreitol, 0.005% (v/v) Nonidet-P40 (Sigma)] was added and the mixture was incubated for 15 min at 22° C. to allow pre-binding of the test compounds to the enzyme before the start of the kinase reaction. Then the kinase reaction was started by the addition of 3 μL of a solution of adenosine-tri-phosphate (ATP, 3.3 mM=>final conc. in the 5 μL assay volume is 2 mM) and substrate (0.1 μM=>final conc. in the 5 μL assay volume is 0.06 μM) in assay buffer and the resulting mixture was incubated for a reaction time of 30 min at 22° C. The concentration of MKNK1 was adjusted depending of the activity of the enzyme lot and was chosen appropriate to have the assay in the linear range, typical concentrations were in the range of 0.003 μg/mL. The reaction was stopped by the addition of 5 μL of a solution of TR-FRET detection reagents (5 nM streptavidine-XL665 [Cisbio Bioassays, Codolet, France] and 1 nM anti-ribosomal protein S6 (pSer236)-antibody from Invitrogen [#44921G] and 1 nM LANCE EU-W1024 labeled ProteinG [Perkin-Elmer, product no. AD0071]) in an aqueous EDTA-solution (100 mM EDTA, 0.1% (w/v) bovine serum albumin in 50 mM HEPES pH 7.5).
The resulting mixture was incubated for 1 h at 22° C. to allow the formation of complex between the phosphorylated biotinylated peptide and the detection reagents. Subsequently the amount of phosphorylated substrate was evaluated by measurement of the resonance energy transfer from the Eu-chelate to the streptavidine-XL. Therefore, the fluorescence emissions at 620 nm and 665 nm after excitation at 350 nm were measured in a TR-FRET reader, e.g. a Rubystar (BMG Labtechnologies, Offenburg, Germany) or a Viewlux (Perkin-Elmer). The ratio of the emissions at 665 nm and at […] was taken as the measure for the amount of phosphorylated substrate. The data were normalised (enzyme reaction without inhibitor=0% inhibition, all other assay components but no enzyme=100% inhibition).

Sequence of human full-length MKNK1 (Q9BUB5 other isoform, or with tags, fused parts or gaps T344D): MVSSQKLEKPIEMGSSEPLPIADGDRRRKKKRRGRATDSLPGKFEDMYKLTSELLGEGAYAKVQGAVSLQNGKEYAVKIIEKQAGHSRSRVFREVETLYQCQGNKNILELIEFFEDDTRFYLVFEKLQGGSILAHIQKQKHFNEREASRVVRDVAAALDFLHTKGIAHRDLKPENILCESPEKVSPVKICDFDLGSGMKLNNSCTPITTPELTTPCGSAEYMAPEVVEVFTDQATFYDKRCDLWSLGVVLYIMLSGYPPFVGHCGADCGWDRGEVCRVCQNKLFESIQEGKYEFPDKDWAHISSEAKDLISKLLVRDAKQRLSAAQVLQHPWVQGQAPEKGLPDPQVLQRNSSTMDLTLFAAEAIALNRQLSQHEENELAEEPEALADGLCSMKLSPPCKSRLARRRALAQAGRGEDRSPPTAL

| SMILES | IC50 [nM] |
| --- | --- |
| [N-]=[N+]=NCC1CCc2c(sc3ncnc(Nc4ccc5[nH]c(=O)sc5c4)c23)C1 (racemic) [Example 19, (RS)-6-{[7-(Azidomethyl)-5,6,7,8-tetrahydro[1]benzothieno[2,3-d]pyrimidin-4-yl]amino}-1,3-benzothiazol-2(3H)-one] | 93 |
| NCC1CCc2c(sc3ncnc(Nc4ccc5[nH]c(=O)sc5c4)c23)C1 (racemic) [Example 20, (RS)-6-{[7-(Aminomethyl)-5,6,7,8-tetrahydro[1]benzothieno[2,3-d]pyrimidin-4-yl]amino}-1,3-benzothiazol-2(3H)-one] | 103 |
| CC(C)C(=O)NCC1CCc2c(sc3ncnc(Nc4ccc5[nH]c(=O)sc5c4)c23)C1 (racemic) [Example 21, (RS)-2-Methyl-N-({4-[(2-oxo-2,3-dihydro-1,3-benzothiazol-6-yl)amino]-5,6,7,8-tetrahydro[1]benzothieno[2,3-d]pyrimidin-7-yl}methyl)propanamide] | 37 |
| CC(C)NC(=O)NCC1CCc2c(sc3ncnc(Nc4ccc5[nH]c(=O)sc5c4)c23)C1 (racemic) [Example 22, (RS)-1-({4-[(2-Oxo-2,3-dihydro-1,3-benzothiazol-6-yl)amino]-5,6,7,8-tetrahydro[1]benzothieno[2,3-d]pyrimidin-7-yl}methyl)-3-propan-2-ylurea] | 59 |
| CC(C)OC(=O)NCC1CCc2c(sc3ncnc(Nc4ccc5[nH]c(=O)sc5c4)c23)C1 (racemic) [Example 24, (RS)-Propan-2-yl ({4-[(2-oxo-2,3-dihydro-1,3-benzothiazol-6-yl)amino]-5,6,7,8-tetrahydro[1]benzothieno[2,3-d]pyrimidin-7-yl}methyl)carbamate] | 62 |
| CC(C)(O)C(=O)NCC1CCc2c(sc3ncnc(Nc4ccc5[nH]c(=O)sc5c4)c23)C1 (racemic) [Example 25, (RS)-2-Hydroxy-2-methyl-N-({4-[(2-oxo-2,3-dihydro-1,3-benzothiazol-6-yl)amino]-5,6,7,8-tetrahydro[1]benzothieno[2,3-d]pyrimidin-7-yl}methyl)propanamide] | 42 |
| CC(O)C(=O)NCC1CCc2c(sc3ncnc(Nc4ccc5[nH]c(=O)sc5c4)c23)C1 (racemic) [Example 26, (2RS)-2-Hydroxy-N-({(7RS)-4-[(2-oxo-2,3-dihydro-1,3-benzothiazol-6-yl)amino]-5,6,7,8-tetrahydro[1]benzothieno[2,3-d]pyrimidin-7-yl}methyl)propanamide] | 84 |
| CC(C)S(=O)(=O)NCC1CCc2c(sc3ncnc(Nc4ccc5[nH]c(=O)sc5c4)c23)C1 (racemic) [Example 28, (RS)—N-({4-[(2-Oxo-2,3-dihydro-1,3-benzothiazol-6-yl)amino]-5,6,7,8-tetrahydro[1]benzothieno[2,3-d]pyrimidin-7-yl}methyl)propane-2-sulfonamide] | 139 |
| CN1CCN(C(=O)C2CCc3c(sc4ncnc(Nc5ccc6[nH]c(=O)sc6c5)c34)C2)CC1 (racemic) [Example 29, (RS)-6-({7-[(4-Methylpiperazin-1-yl)carbonyl]-5,6,7,8-tetrahydro[1]benzothieno[2,3-d]pyrimidin-4-yl}amino)-1,3-benzothiazol-2(3H)-one] | 48 |
| CCOC(=O)C1CCc2c(sc3ncnc(Nc4cc5sc(=O)[nH]c5cc4OC)c23)C1 (racemic) [Example 30, (RS)-Ethyl 4-[(5-methoxy-2-oxo-2,3-dihydro-1,3-benzothiazol-6-yl)amino]-5,6,7,8-tetrahydro[1]benzothieno[2,3-d]pyrimidine-7-carboxylate] | 15 |
| COc1cc2[nH]c(=O)sc2cc1Nc1ncnc2sc3c(c12)CCC(C(=O)NC(C)C)C3 (racemic) [Example 31] | 4 |
| CCCCN(CC#N)C(=O)C1CCc2c(sc3ncnc(Nc4ccc5[nH]c(=O)sc5c4)c23)C1 (racemic) [Example 34, (RS)-N-butyl-N-(cyanonmethyl)-4-[(2-oxo-2,3-dihydro-1,3-benzothiazol-6-yl)amino]-5,6,7,8-tetrahydro[1]benzothieno[2,3-d]pyrimidine-7-carboxamide] | 20 |
| CN(C)CCN(C)C(=O)C1CCc2c(sc3ncnc(Nc4ccc5[nH]c(=O)sc5c4)c23)C1 (racemic) [Example 35, (RS)-N-[2-(dimethylamino)ethyl]-N-methyl-4-[(2-oxo-2,3-dihydro-1,3-benzothiazol-6-yl)amino]-5,6,7,8-tetrahydro[1]benzothieno[2,3-d]pyrimidine-7-carboxamide] | 36 |
| CN(C)CCN(Cc1ccccc1)C(=O)C1CCc2c(sc3ncnc(Nc4ccc5[nH]c(=O)sc5c4)c23)C1 (racemic) [Example 36, (RS)-N-benzyl-N-[2-(dimethylamino)ethyl]-4-[(2-oxo-2,3-dihydro-1,3-benzothiazol-6-yl)amino]-5,6,7,8-tetrahydro[1]benzothieno[2,3-d]pyrimidine-7-carboxamide] | 9 |
| CN1CCN(C(=O)C2CCc3c(sc4ncnc(Nc5ccc6[nH]c(=O)sc6c5)c34)C2)CC1 (racemic) [Example 37, (RS)-6-({7-[(4-methylpiperazin-1-yl)carbonyl]-5,6,7,8-tetrahydro[1]benzothieno[2,3-d]pyrimidin-4-yl}amino)-1,3-benzothiazol-2(3H)-one] | 22 |
| O=C(C1CCc2c(sc3ncnc(Nc4ccc5[nH]c(=O)sc5c4)c23)C1)N1CCN(c2ccccn2)CC1 (racemic) [Example 40, (RS)-6-[(7-{[4-(pyridin-2-yl)piperazin-1-yl]carbonyl}-5,6,7,8-tetrahydro[1]benzothieno[2,3-d]pyrimidin-4-yl)amino]-1,3-benzothiazol-2(3H)-one] | 65 |
| CCCCN(C)C(=O)C1CCc2c(sc3ncnc(Nc4ccc5[nH]c(=O)sc5c4)c23)C1 (racemic) [Example 41, (RS)-N-butyl-N-methyl-4-[(2-oxo-2,3-dihydro-1,3-benzothiazol-6-yl)amino]-5,6,7,8-tetrahydro[1]benzothieno[2,3-d]pyrimidine-7-carboxamide] | 21 |
| COc1ccc(N(C)C(=O)C2CCc3c(sc4ncnc(Nc5ccc6[nH]c(=O)sc6c5)c34)C2)cc1 (racemic) [Example 42, (RS)-N-(4-methoxyphenyl)-N-methyl-4-[(2-oxo-2,3-dihydro-1,3-benzothiazol-6-yl)amino]-5,6,7,8-tetrahydro[1]benzothieno[2,3-d]pyrimidine-7-carboxamide] | 47 |
| O=C(CN1CCN(C(=O)C2CCc3c(sc4ncnc(Nc5ccc6[nH]c(=O)sc6c5)c34)C2)CC1)N1CCCC1 (racemic) [Example 43, (RS)-6-{[7-({4-[2-oxo-2-(pyrrolidin-1-yl)ethyl]piperazin-1-yl}carbonyl)-5,6,7,8-tetrahydro[1]benzothieno[2,3-d]pyrimidin-4-yl]amino}-1,3-benzothiazol-2(3H)-one] | 69 |
| O=C(C1CCc2c(sc3ncnc(Nc4ccc5[nH]c(=O)sc5c4)c23)C1)N1CCN(Cc2ccc3c(c2)OCO3)CC1 (racemic) [Example 44, (RS)-6-[(7-{[4-(1,3-benzodioxol-5-ylmethyl)piperazin-1-yl]carbonyl}-5,6,7,8-tetrahydro[1]benzothieno[2,3-d]pyrimidin-4-yl)amino]-1,3-benzothiazol-2(3H)-one] | 67 |
| O=C(C1CCc2c(sc3ncnc(Nc4ccc5[nH]c(=O)sc5c4)c23)C1)N1CCC1 (racemic) [Example 45, (RS)-6-{[7-(azetidin-1-ylcarbonyl)-5,6,7,8-tetrahydro[1]benzothieno[2,3-d]pyrimidin-4-yl]amino}-1,3-benzothiazol-2(3H)-one] | 70 |
| O=C(C1CCc2c(sc3ncnc(Nc4ccc5[nH]c(=O)sc5c4)c23)C1)N1CCCC1CO (racemic) [Example 46, 6-{[(7RS)-7-{[(2RS)-2-(hydroxymethyl)pyrrolidin-1-yl]carbonyl}-5,6,7,8-tetrahydro[1]benzothieno[2,3-d]pyrimidin-4-yl]amino}-1,3-benzothiazol-2(3H)-one] | 35 |
| CC(=O)N1CCN(C(=O)C2CCc3c(sc4ncnc(Nc5ccc6[nH]c(=O)sc6c5)c34)C2)CC1 (racemic) [Example 47, (RS)-6-({7-[(4-acetylpiperazin-1-yl)carbonyl]-5,6,7,8-tetrahydro[1]benzothieno[2,3-d]pyrimidin-4-yl}amino)-1,3-benzothiazol-2(3H)-one] | 47 |
